Reference: the NIST ThermoML archive (doi:10.1016/j.jct.2013.12.028)
Numbers after ± are expanded uncertainties.

Experiment: mn = molality of the nth substance listed, in mol/kg
Conditions: 101.3 kPa, Liquid, Vibrating tube method

Structure (SMILES): C1CCOC1 [tetrahydrofuran] + O
- mass density (278.15 K, m1 = 0.06882): 999.729 ± 0.11 kg/m3
- mass density (278.15 K, m1 = 0.1028): 999.619 ± 0.11 kg/m3
- mass density (278.15 K, m1 = 0.2158): 999.282 ± 0.11 kg/m3
- mass density (278.15 K, m1 = 0.3098): 999.036 ± 0.11 kg/m3
- mass density (278.15 K, m1 = 0.4199): 998.781 ± 0.11 kg/m3
- mass density (278.15 K, m1 = 0.5704): 998.489 ± 0.11 kg/m3
- mass density (278.15 K, m1 = 0.7194): 998.255 ± 0.11 kg/m3
- mass density (278.15 K, m1 = 0.8767): 998.059 ± 0.11 kg/m3
- mass density (278.15 K, m1 = 1.04): 997.903 ± 0.11 kg/m3
- mass density (278.15 K, m1 = 1.174): 997.793 ± 0.11 kg/m3
- mass density (278.15 K, m1 = 1.262): 997.732 ± 0.11 kg/m3
- mass density (278.15 K, m1 = 1.406): 997.65 ± 0.11 kg/m3
- mass density (278.15 K, m1 = 1.576): 997.559 ± 0.11 kg/m3
- mass density (283.15 K, m1 = 0.06882): 999.439 ± 0.11 kg/m3
- mass density (283.15 K, m1 = 0.1028): 999.317 ± 0.11 kg/m3
- mass density (283.15 K, m1 = 0.2158): 998.938 ± 0.11 kg/m3
- mass density (283.15 K, m1 = 0.3098): 998.655 ± 0.11 kg/m3
- mass density (283.15 K, m1 = 0.4199): 998.36 ± 0.11 kg/m3
- mass density (283.15 K, m1 = 0.5704): 997.999 ± 0.11 kg/m3
- mass density (283.15 K, m1 = 0.7194): 997.698 ± 0.11 kg/m3
- mass density (283.15 K, m1 = 0.8767): 997.427 ± 0.11 kg/m3
- mass density (283.15 K, m1 = 1.04): 997.18 ± 0.11 kg/m3
- mass density (283.15 K, m1 = 1.174): 997.013 ± 0.11 kg/m3
- mass density (283.15 K, m1 = 1.262): 996.903 ± 0.11 kg/m3
- mass density (283.15 K, m1 = 1.406): 996.744 ± 0.11 kg/m3
- mass density (283.15 K, m1 = 1.576): 996.552 ± 0.11 kg/m3
- mass density (288.15 K, m1 = 0.06882): 998.826 ± 0.11 kg/m3
- mass density (288.15 K, m1 = 0.1028): 998.697 ± 0.11 kg/m3
- mass density (288.15 K, m1 = 0.2158): 998.289 ± 0.11 kg/m3
- mass density (288.15 K, m1 = 0.3098): 997.977 ± 0.11 kg/m3
- mass density (288.15 K, m1 = 0.4199): 997.637 ± 0.11 kg/m3
- mass density (288.15 K, m1 = 0.5704): 997.225 ± 0.11 kg/m3
- mass density (288.15 K, m1 = 0.7194): 996.863 ± 0.11 kg/m3
- mass density (288.15 K, m1 = 0.8767): 996.519 ± 0.11 kg/m3
- mass density (288.15 K, m1 = 1.04): 996.19 ± 0.11 kg/m3
- mass density (288.15 K, m1 = 1.174): 995.964 ± 0.11 kg/m3
- mass density (288.15 K, m1 = 1.262): 995.814 ± 0.11 kg/m3
- mass density (288.15 K, m1 = 1.406): 995.581 ± 0.11 kg/m3
- mass density (288.15 K, m1 = 1.576): 995.314 ± 0.11 kg/m3
- mass density (293.15 K, m1 = 0.06882): 997.918 ± 0.11 kg/m3
- mass density (293.15 K, m1 = 0.1028): 997.78 ± 0.11 kg/m3
- mass density (293.15 K, m1 = 0.2158): 997.343 ± 0.11 kg/m3
- mass density (293.15 K, m1 = 0.3098): 997.003 ± 0.11 kg/m3
- mass density (293.15 K, m1 = 0.4199): 996.629 ± 0.11 kg/m3
- mass density (293.15 K, m1 = 0.5704): 996.162 ± 0.11 kg/m3
- mass density (293.15 K, m1 = 0.7194): 995.741 ± 0.11 kg/m3
- mass density (293.15 K, m1 = 0.8767): 995.333 ± 0.11 kg/m3
- mass density (293.15 K, m1 = 1.04): 994.935 ± 0.11 kg/m3
- mass density (293.15 K, m1 = 1.174): 994.643 ± 0.11 kg/m3
- mass density (293.15 K, m1 = 1.262): 994.456 ± 0.11 kg/m3
- mass density (293.15 K, m1 = 1.406): 994.16 ± 0.11 kg/m3
- mass density (293.15 K, m1 = 1.576): 993.821 ± 0.11 kg/m3
- mass density (298.15 K, m1 = 0.06882): 996.743 ± 0.11 kg/m3
- mass density (298.15 K, m1 = 0.1028): 996.596 ± 0.11 kg/m3
- mass density (298.15 K, m1 = 0.2158): 996.13 ± 0.11 kg/m3
- mass density (298.15 K, m1 = 0.3098): 995.764 ± 0.11 kg/m3
- mass density (298.15 K, m1 = 0.4199): 995.359 ± 0.11 kg/m3
- mass density (298.15 K, m1 = 0.5704): 994.84 ± 0.11 kg/m3
- mass density (298.15 K, m1 = 0.7194): 994.361 ± 0.11 kg/m3
- mass density (298.15 K, m1 = 0.8767): 993.894 ± 0.11 kg/m3
- mass density (298.15 K, m1 = 1.04): 993.435 ± 0.11 kg/m3
- mass density (298.15 K, m1 = 1.174): 993.087 ± 0.11 kg/m3
- mass density (298.15 K, m1 = 1.262): 992.856 ± 0.11 kg/m3
- mass density (298.15 K, m1 = 1.406): 992.503 ± 0.11 kg/m3
- mass density (298.15 K, m1 = 1.576): 992.084 ± 0.11 kg/m3
- mass density (303.15 K, m1 = 0.06882): 995.331 ± 0.11 kg/m3
- mass density (303.15 K, m1 = 0.1028): 995.178 ± 0.11 kg/m3
- mass density (303.15 K, m1 = 0.2158): 994.687 ± 0.11 kg/m3
- mass density (303.15 K, m1 = 0.3098): 994.293 ± 0.11 kg/m3
- mass density (303.15 K, m1 = 0.4199): 993.859 ± 0.11 kg/m3
- mass density (303.15 K, m1 = 0.5704): 993.293 ± 0.11 kg/m3
- mass density (303.15 K, m1 = 0.7194): 992.771 ± 0.11 kg/m3
- mass density (303.15 K, m1 = 0.8767): 992.247 ± 0.11 kg/m3
- mass density (303.15 K, m1 = 1.04): 991.725 ± 0.11 kg/m3
- mass density (303.15 K, m1 = 1.174): 991.324 ± 0.11 kg/m3
- mass density (303.15 K, m1 = 1.262): 991.065 ± 0.11 kg/m3
- mass density (303.15 K, m1 = 1.406): 990.648 ± 0.11 kg/m3
- mass density (303.15 K, m1 = 1.576): 990.16 ± 0.11 kg/m3
- mass density (308.15 K, m1 = 0.06882): 993.701 ± 0.11 kg/m3
- mass density (308.15 K, m1 = 0.1028): 993.538 ± 0.11 kg/m3
- mass density (308.15 K, m1 = 0.2158): 993.021 ± 0.11 kg/m3
- mass density (308.15 K, m1 = 0.3098): 992.601 ± 0.11 kg/m3
- mass density (308.15 K, m1 = 0.4199): 992.137 ± 0.11 kg/m3
- mass density (308.15 K, m1 = 0.5704): 991.526 ± 0.11 kg/m3
- mass density (308.15 K, m1 = 0.7194): 990.96 ± 0.11 kg/m3
- mass density (308.15 K, m1 = 0.8767): 990.382 ± 0.11 kg/m3
- mass density (308.15 K, m1 = 1.04): 989.802 ± 0.11 kg/m3
- mass density (308.15 K, m1 = 1.174): 989.348 ± 0.11 kg/m3
- mass density (308.15 K, m1 = 1.262): 989.06 ± 0.11 kg/m3
- mass density (308.15 K, m1 = 1.406): 988.583 ± 0.11 kg/m3
- mass density (308.15 K, m1 = 1.576): 988.025 ± 0.11 kg/m3
- mass density (313.15 K, m1 = 0.06882): 991.864 ± 0.11 kg/m3
- mass density (313.15 K, m1 = 0.1028): 991.694 ± 0.11 kg/m3
- mass density (313.15 K, m1 = 0.2158): 991.146 ± 0.11 kg/m3
- mass density (313.15 K, m1 = 0.3098): 990.703 ± 0.11 kg/m3
- mass density (313.15 K, m1 = 0.4199): 990.208 ± 0.11 kg/m3
- mass density (313.15 K, m1 = 0.5704): 989.552 ± 0.11 kg/m3
- mass density (313.15 K, m1 = 0.7194): 988.935 ± 0.11 kg/m3
- mass density (313.15 K, m1 = 0.8767): 988.304 ± 0.11 kg/m3
- mass density (313.15 K, m1 = 1.04): 987.671 ± 0.11 kg/m3
- mass density (313.15 K, m1 = 1.174): 987.162 ± 0.11 kg/m3
- mass density (313.15 K, m1 = 1.262): 986.838 ± 0.11 kg/m3
- mass density (313.15 K, m1 = 1.406): 986.311 ± 0.11 kg/m3
- mass density (313.15 K, m1 = 1.576): 985.688 ± 0.11 kg/m3
- mass density (318.15 K, m1 = 0.06882): 989.851 ± 0.11 kg/m3
- mass density (318.15 K, m1 = 0.1028): 989.672 ± 0.11 kg/m3
- mass density (318.15 K, m1 = 0.2158): 989.097 ± 0.11 kg/m3
- mass density (318.15 K, m1 = 0.3098): 988.631 ± 0.11 kg/m3
- mass density (318.15 K, m1 = 0.4199): 988.102 ± 0.11 kg/m3
- mass density (318.15 K, m1 = 0.5704): 987.402 ± 0.11 kg/m3
- mass density (318.15 K, m1 = 0.7194): 986.735 ± 0.11 kg/m3
- mass density (318.15 K, m1 = 0.8767): 986.049 ± 0.11 kg/m3
- mass density (318.15 K, m1 = 1.04): 985.363 ± 0.11 kg/m3
- mass density (318.15 K, m1 = 1.174): 984.803 ± 0.11 kg/m3
- mass density (318.15 K, m1 = 1.262): 984.443 ± 0.11 kg/m3
- mass density (318.15 K, m1 = 1.406): 983.864 ± 0.11 kg/m3
- mass density (318.15 K, m1 = 1.576): 983.169 ± 0.11 kg/m3
